According to US20120245107A1, “METHODS OF REDUCING THE PROLIFERATION AND VIABLILITY OF MICROBIAL AGENTS” (Targeted Delivery Technologies Limited, priority 2009, published 2012):
Structures can show the parent of a compound that is named as a salt. Where two headings read alike, the source gives them in different places.

Key:
Type in all cases: cell-based
[1] = system: Aspergillus flavus; assay: Minimum inhibitory concentration (MIC100), CLSI M38-A2 broth dilution
Procedure: (§1) Antifungal activity of the antifungal formulations of the invention against dermatophytes, as compared to terbinafine hydrochloride alone, is determined in various dermatophytes known to cause onychomycosis, including Trichophyton rubrum, T. mentagrophytes, and Epidermophyton floccosum. Antifungal activity of the antifungal formulations of the invention as compared to terbinafine hydrochloride alone, was determined in various pathogenic fungi, including Aspergillus flavus and Aspergillus fumigatus. Antifungal activity of the antifungal formulations of the invention was measured by the minimum inhibitory concentration (MIC). Antifungal activity can also be measured by minimum fungicidal concentration (MFC).
(§2) Several strains of Aspergillus flavus, Aspergillus fumigatus, and Candida albicans were tested. Trichophyton rubrum MYA4498 and T. mentagrophytes MYA4439, the QC isolates approved by the Clinical and Laboratory Standards Institute (CLSI) for dermatophyte susceptibility testing, can also be tested.
(§3) MIC testing was performed according to the CLSI M38A2 standard for the susceptibility testing of dermatophytes developed at the Center for Medical Mycology (See, Ghannoum et al., 2004, J Clin Microbial. 42(7): 2977-2979 CLSI, Reference Method for Broth Dilution Antifungal Susceptibility Testing of Filamentous Fungi: Approved Standard-Second Edition. CLSI document M38-A2 [ISBN 1-56238-668-9]. CLSI, 940 West Valley Road, Suite 1400, Wayne, Pa. 19087-1898 USA, 2008). Briefly, RPMI was the test medium, incubation temperature and time was 35° C. and 24 hours or 48 hours, respectively, and the inoculum size was 1-3×10^3 conidia/ml. The MIC endpoint was 100% inhibition as compared to the growth control.
(§4) The MIC range, MIC100 (defined as the minimum concentration required to inhibit 100% of the isolates tested), for the antifungal preparations of the invention and comparators was computed. The MFC range, MFC50, MFC90, and MFC100 for the antifungal preparations of the invention and comparators can also be computed.
(§5) In this example, the terbinafine formulation of the invention comprises terbinafine formulated with a phospholipid and a surfactant.

[2] = system: Aspergillus fumigatus; assay: as above
Procedure: as §1, §2, §3, §4, §5

[3] = system: Trichophyton rubrum MYA4498; assay: Morphological effects of antifungal preparations on dermatophyte hyphae in vitro (calcofluor white microscopy); settings: T. rubrum hyphae; for Week 1 Change in morphology If yes, description of change: hydrochloride
[4] = system: Trichophyton rubrum MYA4498; assay: as above; settings: T. rubrum hyphae; for Week 1 Change in morphology If yes, description of change: hydrochloride; remark: listed apart in the source
Procedure: The morphological changes to dermatophyte hyphae following exposure to an antifungal formulation of the invention, specifically a terbinafine formulation, compared to terbinafine hydrochloride solution in vitro were evaluated.
Trichophyton rubrum MYA4498, one of the quality control isolates approved by the Clinical and Laboratory Standards Institute (CLSI) for dermatophyte susceptibility testing, was used as a test isolate throughout testing, (See, Ghannoum et al., 2004, J Clin Microbiol. 42(7): 2977-2979; Ghannoum et al., J Clin Microbiol. 44: 353-4350. Inoculum containing 3×10^3 conidia/ml of T. rubrum was prepared in RPMI-1640 buffered with MOPS (Hardy Diagnostics, Santa Maria. CA), added to the wells of microtiter plates (100 ul aliquots) and incubated at 35° C. for 2-3 days until good hyphal growth was achieved. Specific concentrations of 1 mg/ml, 3 mg/ml, and 15 mg/ml of terbinafine alone were prepared in RPMI-1640. The terbinafine hydrochloride (1 mg/ml. 3 mg/ml, and 15 mg/ml) and 15 mg/ml of a terbinafine formulation of the invention was added to the wells of the microtiter plates (100 ul aliquots) and re-incubated. Twenty plates for each drug were set up to ensure adequate sample for examination over several weeks; RPMI was added as needed to maintain the volume of each well at 200 ul.
At pre-determined intervals (24, 48, 72, and 96 hours and once weekly thereafter for a total of 12 weeks), a loopful of hyphal growth from the bottom of each well was removed to a glass microscope slide containing a drop of calcofluor white stain (fluorescent KOH) and covered with a cover slip. Slides were examined microscopically under both white light and UV light. Images from a representative field visualized under each light source were be recorded.
Samples showing significant differences in morphology between exposure of a terbinafine formulation vs. terbinafine alone were further examined under Scanning Electron Microscopy (SEM). Preparation of samples for SEM were performed following previously established methodology (see. Chandra et al., 2001. J. Dent. Res. 80:903-908).

MIC ([1]; 24 h, A. flavus strain MRL No. 17840, 24 hours, read-out: MIC100 (μg/mL) in 24 hours): 0.002 µg/mL | MIC ([1]; 24 h, A. flavus strain MRL No. 17842, 24 hours, read-out: MIC100 (μg/mL) in 24 hours): 0.002 µg/mL | MIC ([1]; 24 h, A. flavus strain MRL No. 18736, 24 hours, read-out: MIC100 (μg/mL) in 24 hours): 6e-05 µg/mL | MIC ([1]; 24 h, A. flavus strain MRL No. 18743, 24 hours, read-out: MIC100 (μg/mL) in 24 hours): 0.008 µg/mL | MIC ([1]; 24 h, A. flavus strain MRL No. 18744, 24 hours, read-out: MIC100 (μg/mL) in 24 hours): 0.008 µg/mL | MIC ([1]; 48 h, A. flavus strain MRL No. 17840, 48 hours, read-out: MIC100 (μg/mL) in 48 hours): 0.004 µg/mL | MIC ([1]; 48 h, A. flavus strain MRL No. 17842, 48 hours, read-out: MIC100 (μg/mL) in 48 hours): 0.002 µg/mL | MIC ([1]; 48 h, A. flavus strain MRL No. 18736, 48 hours, read-out: MIC100 (μg/mL) in 48 hours): 0.002 µg/mL | MIC ([1]; 48 h, A. flavus strain MRL No. 18743, 48 hours, read-out: MIC100 (μg/mL) in 48 hours): 0.015 µg/mL | MIC ([1]; 48 h, A. flavus strain MRL No. 18744, 48 hours, read-out: MIC100 (μg/mL) in 48 hours): 0.002 µg/mL | MIC ([2]; 24 h, A. fumigatus strain MRL No. 2456, 24 hours, read-out: MIC100 (μg/mL) in 24 hours): 0.25 µg/mL | MIC ([2]; 24 h, A. fumigatus strain MRL No. 2471, 24 hours, read-out: MIC100 (μg/mL) in 24 hours): 0.25 µg/mL | MIC ([2]; 24 h, A. fumigatus strain MRL No. 2574, 24 hours, read-out: MIC100 (μg/mL) in 24 hours): 0.5 µg/mL | MIC ([2]; 24 h, A. fumigatus strain MRL No. 16621, 24 hours, read-out: MIC100 (μg/mL) in 24 hours): 0.5 µg/mL | MIC ([2]; 24 h, A. fumigatus strain MRL No. 16629, 24 hours, read-out: MIC100 (μg/mL) in 24 hours): 0.5 µg/mL | MIC ([2]; 48 h, A. fumigatus strain MRL No. 2456, 48 hours, read-out: MIC100 (μg/mL) in 48 hours): 234 µg/mL | MIC ([2]; 48 h, A. fumigatus strain MRL No. 2471, 48 hours, read-out: MIC100 (μg/mL) in 48 hours): 234 µg/mL | MIC ([2]; 48 h, A. fumigatus strain MRL No. 2574, 48 hours, read-out: MIC100 (μg/mL) in 48 hours): 234 µg/mL | MIC ([2]; 48 h, A. fumigatus strain MRL No. 16627, 48 hours, read-out: MIC100 (μg/mL) in 48 hours): 234 µg/mL | MIC ([2]; 48 h, A. fumigatus strain MRL No. 16629, 48 hours, read-out: MIC100 (μg/mL) in 48 hours): 234 µg/mL
SMILES: CN(C/C=C/C#CC(C)(C)C)Cc1cccc2ccccc12 [Terbinafine hydrochloride, terbinafine hydrochloride]
morphological changes observed ([3]; 1 μg/mL, 24, 48, 72 and 96 hours): no morphological changes | 24 hour Change in morphology If yes, description of change ([3]; 1 μg/mL): no | 48 hour Change in morphology If yes, description of change ([3]; 1 μg/mL): no | 72 hour Change in morphology If yes, description of change ([3]; 1 μg/mL): no | 96 hour Change in morphology If yes, description of change ([3]; 1 μg/mL): no | Week 1 Change in morphology If yes, description of change ([3]; 1 μg/mL, listed as Terbinafine): Yes: hyphae under | Week 1 Change in morphology If yes, description of change ([3]; 1 μg/mL, listed as terbinafine): had vacuoles within the hyphae | Week 2 Change in morphology If yes, description of change ([3]; 1 μg/mL, Week 2): Yes: hyphae under | 24 hour Change in morphology If yes, description of change ([3]; 3 mg/mL): no | 48 hour Change in morphology If yes, description of change ([3]; 3 mg/mL): no | 72 hour Change in morphology If yes, description of change ([3]; 3 mg/mL): no | 96 hour Change in morphology If yes, description of change ([3]; 3 mg/mL): no | morphological changes observed ([4]; 3 mg/mL, 24, 48, 72 and 96 hours): no morphological changes | Week 1 Change in morphology If yes, description of change ([4]; 3 mg/mL): no presence of vacuoles within the hyphae | Week 1 Change in morphology If yes, description of change ([4]; 3 mg/mL, listed as Tcrbinafine): no | Week 2 Change in morphology If yes, description of change ([4]; 3 mg/mL): Yes: hyphae under | 24 hour Change in morphology If yes, description of change ([4]; 15 mg/mL, 24 hour): no | 48 hour Change in morphology If yes, description of change ([4]; 15 mg/mL, 48 hour): no | 72 hour Change in morphology If yes, description of change ([4]; 15 mg/mL, 72 hour): no | 96 hour Change in morphology If yes, description of change ([4]; 15 mg/mL, 96 hour): no | Week 1 Change in morphology If yes, description of change ([4]; 15 mg/mL, listed as Terbinafine): no | Week 1 Change in morphology If yes, description of change ([4]; 15 mg/mL, listed as terbinafine): no presence of vacuoles within the hyphae | Week 2 Change in morphology If yes, description of change ([4]; 15 mg/mL): no
